The record followed here is patent US9775857B2, “Lignans isolated from Lasia spinosa (L.) Thwait” (Hong Kong Baptist University, priority 2015, dated 2017).

What is called IC50 is the concentration that gives 50% inhibition.

The test system of series [1] is KYSE-70. Briefly: Cytotoxicity assay (MTT), KYSE-70. Format: cell-based. The note with it: 48 h, 1.56-50 μg/mL tested; for IC50: KYSE-70, human esophageal carcinoma cells, read-out: Cytotoxicity against KYSE-70, IC50; for Cytotoxicity against KYSE-70, IC50: human esophageal carcinoma cells. As for the experimental part: (§1) Test compounds were dissolved in dimethyl sulfoxide (DMSO) to make stock solutions and further diluted in culture medium. Human esophageal carcinoma cell lines (KYSE-70, KYSE-150, KYSE-450 and KYSE-520) were cultured in RPMI 1640 or DMEM medium containing 10% fetal bovine serum and 1% antibiotics (Penicillin and strep). 3×10^3 cells/well were seeded in a 96-well plate and allowed to attach to the plate overnight. After the recovery, cells were treated with 1.56, 3.125, 6.25, 12.5, 25, 50 μg/mL of compounds in culture medium for 48 h. Then, 20 μL of MTT (5 mg/mL stock in PBS) per well was added into the medium (200 μL) and incubated for 4 h at 37° C. Finally, the culture medium was removed and 200 μL of DMSO were added. Absorbance of the solution was measured using microplate reader spectrophotometer (Bio-Rad Laboratories, Inc., Hercules, Calif.) at a wavelength of 570 nm.

In series [2] the test system is KYSE-520. The series can be described thus: Cytotoxicity assay (MTT), KYSE-520. Format: cell-based. The conditions noted are these: human esophageal carcinoma cells, 1.56-50 μg/mL tested; for IC50: Homo sapiens, KYSE-520, 48 h, read-out: Cytotoxicity against KYSE-520, IC50. As for the experimental part:
as §1

The test system of series [3] is KYSE-450. The series can be described thus: Cytotoxicity assay (MTT), KYSE-450. The note with it: 48 h, 1.56-50 μg/mL tested; for IC50: KYSE-450, human esophageal carcinoma cells, read-out: Cytotoxicity against KYSE-450, IC50; for Cytotoxicity against KYSE-450, IC50: human esophageal carcinoma cells. Format: cell-based. As to the method:
as §1

For series [4], the system named is KYSE-150. Briefly: Cytotoxicity assay (MTT), KYSE-150. The series is classed as cell-based. The note with it: human esophageal carcinoma cells, 1.56-50 μg/mL tested; for IC50: Homo sapiens, KYSE-150, 48 h, read-out: Cytotoxicity against KYSE-150, IC50; for Cytotoxicity against KYSE-150, IC50: 48 h. As to the method:
as §1

In series [5] the test system is KYSE-150 cells. The series can be described thus: Tumor xenograft mouse model. The series is classed as in vivo, nude female mice. The note with it: KYSE-150 xenograft. As to the method: The tumor xenograft mice were treated with a vehicle or compound 9 at 15 or 30 mg/kg once a day […] for 12 days. Tumor size was measured every two days and body weight was measured every day. On day 13, the mice were sacrificed, and tumor weight was measured (n=5, *p<0.05, **p<0.01, ***p<0.001, ****p<0.0001).
Six to eight weeks old nude female mice weighing about 16-20 g were purchased from the Laboratory Animal Services Center, the Chinese University of Hong Kong, and 2×10^6 KYSE-150 cells in […] saline were injected subcutaneously into the flanks of the mice. When the tumor volume reached about 100 mm^3, the mice were randomly divided into three groups (n=5). The control group was administered with saline, while compound 9 treatment groups were given different doses of 9 (15 or 30 mg/kg, respectively) by intraperitoneal injection. Tumor volume were measured by vernier caliper every two days for 12 days, and calculated according to the formula: Volume=(width)^2×length/2. At the end of observation, mice were killed to remove the tumors. Then the samples were fixed in 4% paraformaldehyde and embedded in paraffin. Five-micro-meter sections were stained with hematoxylin/eosin according to a standard procedure. Animal protocol was approved by the committee for Care of Laboratory Animals in the School of Chinese Medicine at the Hong Kong Baptist University.

Where [6] appears, read: 15 or 30 mg/kg once a day for 12 days.

The structures appear in SMILES notation. ≈ marks a conversion by molar mass, not a printed value. Entries after “also recorded” stand apart in the source; their conditions may differ.

With `COc1cc([C@H]2Oc3c(OC)cc(CCCO)cc3[C@@H]2CO)ccc1O` [Compound 8, Dihydrodehydrodiconifery Alcohol], the IC50 is greater than 50 µg/mL in series [1], roughly 30 µg/mL (≈ 83.2 µM) in series [2], greater than 50 µg/mL in series [3] and roughly 30 µg/mL (≈ 83.2 µM) in series [4]. Also, the “Cytotoxicity against KYSE-520, IC50” value in series [2] (48 h) was found to be 37.34 μg/mL. The “Cytotoxicity against KYSE-150, IC50” value in series [4] stood at 31.86 μg/mL.
Turning to `COc1cc(CC(C)C(O)(CO)Cc2cc(OC)c(O)c(OC)c2)ccc1O` (stereo not shown) [Compound 3, 2-(4-Hydroxy-3,5-dimethoxybenzyl)-3-(4-hydroxy-3-methoxybenzyl)-1,2-butanediol], the IC50 in series [1] was greater than 50 µg/mL; in series [2], greater than 50 µg/mL; in series [3], greater than 50 µg/mL; in series [4] it was 34.5 µg/mL (≈ 87.9 µM).
For `COc1cc(C[C@@H](CO)[C@H](CO)Cc2cc(OC)c(O)c(OC)c2)cc(OC)c1O` [Compound 2, 5,5′-Dimethoxysecoiso-lariciresinol], the “Cytotoxicity against KYSE-70, IC50” value in series [1] is given as 47.22 μg/mL; in series [1] (listed as compound 2) it was roughly 50 μg/mL. The results for the “Cytotoxicity against KYSE-450, IC50” value in series [3] and in series [3] (listed as compound 2) were 39.21 μg/mL and roughly 50 μg/mL, respectively. The “Cytotoxicity against KYSE-150, IC50” value in series [4] is listed as 49.63 μg/mL; in series [4] (listed as compound 2), roughly 50 μg/mL.
Turning to `COc1cc([C@H]2OC[C@H]3[C@@H]2CO[C@@H]3c2cc(OC)c(O)c(OC)c2)cc(OC)c1O` [Compound 9, Syringaresinol], the IC50 in series [1], in series [2], in series [3] and in series [4] was greater than 50 µg/mL throughout. In addition, in series [5] (setting [6]), the body weight result is “suppresses the body weight; also recorded: less body weight loss”. The toxic death result in series [5] (setting [6]) was “no toxic death”. The weight of tumor entry in series [5] (15 or 30 mg/kg once a day for 12 days, day 13) is given as “suppresses the weight of tumor”. Besides, in series [5] (15 or 30 mg/kg once a day for 12 days, vs control), the “tumor growth / size of tumor” value is listed as “suppresses the size of tumor; also recorded: significant tumor growth delay”. Moreover, the “H&E staining of the tumor tissue (histological manifestation)” value in series [5] (15 or 30 mg/kg, vs control (orderly and tightly)) was “obviously loose and messy”.
